This passage reports IC50 results from patent US10213427B2 (Incyte Corporation, priority 2010, dated 2019).

SMILES strings stand for the structures.

FGFR3 enzyme (Millipore), sequence (P22607 23-806): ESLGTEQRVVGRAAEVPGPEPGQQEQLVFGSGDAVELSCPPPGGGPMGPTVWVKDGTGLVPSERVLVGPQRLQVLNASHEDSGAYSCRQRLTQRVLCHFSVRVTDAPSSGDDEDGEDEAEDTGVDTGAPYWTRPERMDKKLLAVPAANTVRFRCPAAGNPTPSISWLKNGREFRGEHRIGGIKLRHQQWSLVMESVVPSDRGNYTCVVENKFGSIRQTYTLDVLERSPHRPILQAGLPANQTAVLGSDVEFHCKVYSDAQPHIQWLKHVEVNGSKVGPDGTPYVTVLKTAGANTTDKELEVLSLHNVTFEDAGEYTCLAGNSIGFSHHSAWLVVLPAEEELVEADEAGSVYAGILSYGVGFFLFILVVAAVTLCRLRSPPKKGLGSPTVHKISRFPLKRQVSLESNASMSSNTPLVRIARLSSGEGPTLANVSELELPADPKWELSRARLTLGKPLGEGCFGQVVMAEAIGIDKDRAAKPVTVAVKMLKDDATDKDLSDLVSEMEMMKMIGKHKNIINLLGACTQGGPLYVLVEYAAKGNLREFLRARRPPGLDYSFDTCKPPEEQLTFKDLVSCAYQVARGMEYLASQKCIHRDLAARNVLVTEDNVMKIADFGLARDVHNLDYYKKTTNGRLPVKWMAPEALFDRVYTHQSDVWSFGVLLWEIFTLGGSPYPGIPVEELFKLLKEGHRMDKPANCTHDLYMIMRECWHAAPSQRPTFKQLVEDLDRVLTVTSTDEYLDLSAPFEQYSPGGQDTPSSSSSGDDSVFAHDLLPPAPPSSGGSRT

This experiment deals with FGFR3 enzyme (Millipore) (Homo sapiens (Human), UniProt P22607). Put plainly: FGFR3 Enzymatic Assay. The format is biochemical. Conditions: FRET peptide phosphorylation, 140 μM ATP. How it is done:
The inhibitor potency of compounds of the invention was measured in an enzyme assay that measures peptide phosphorylation using FRET measurements to detect product formation. Inhibitors were serially diluted in DMSO and a volume of 0.5 μL was transferred to the wells of a 384-well plate. A 10 μL volume of FGFR3 enzyme (Millipore) diluted in assay buffer (50 mM HEPES, 10 mM MgCl2, 1 mM EGTA, 0.01% Tween-20, 5 mM DTT, pH 7.5) was added to the plate and pre-incubated for 5-10 minutes. Appropriate controls (enzyme blank and enzyme with no inhibitor) were included on the plate. […] The plate was incubated at 25° C. for 1 hr. […] The plate was allowed to equilibrate for ˜1 hr before scanning the wells on a PheraStar plate reader.
GraphPad prism3 was used to analyze the data. The IC50 values were derived by fitting the data to the equation for a sigmoidal dose-response with a variable slope. Y=Bottom+(Top−Bottom)/(1+10^((Log IC50−X)*HillSlope)) where X is the logarithm of concentration and Y is the response.
As usually defined, the IC50 is the concentration at which inhibition is half-maximal. With `CNC(=O)C(C)n1cc(-c2cnn3c(-c4cccc(NC(=O)NCC(F)(F)F)c4)cnc3c2)cn1` (centres unmarked) [Example 55, N-Methyl-2-(4-{3-[3-({[(2,2,2-trifluoroethyl)amino]carbonyl}amino)phenyl]imidazo[1,2-b]pyridazin-7-yl}-1H-pyrazol-1-yl)propanamide], the IC50 was below 10 nM. Consider `O=C(NCC(F)(F)F)Nc1cccc(-c2cnc3cc(-c4ccc(N5CCN(C(=O)N6CCCC6)CC5)nc4)cnn23)c1` [Example 53, N-[3-(7-{6-[4-(pyrrolidin-1-ylcarbonyl)piperazin-1-yl]pyridin-3-yl}imidazo[1,2-b]pyridazin-3-yl)phenyl]-N′-(2,2,2-trifluoroethyl)urea], for which the IC50 was below 10 nM. As for `COCC(=O)N1CCC(n2cc(-c3cnn4c(-c5cccc(NC(=O)NCC(F)(F)F)c5)cnc4c3)cn2)CC1` [Example 30, N-[3-(7-{1-[1-(Methoxyacetyl)piperidin-4-yl]-1H-pyrazol-4-yl}imidazo[1,2-b]pyridazin-3-yl)phenyl]-N′-(2,2,2-trifluoroethyl)urea], the IC50 was below 10 nM. In turn, `Cn1ccc(S(=O)(=O)N2CC(CC#N)(n3cc(-c4cnn5c(-c6cccc(NC(=O)NCC(F)(F)F)c6)cnc5c4)cn3)C2)n1` [Example 73, N-{3-[7-(1-{3-(Cyanomethyl)-1-[(1-methyl-1H-pyrazol-3-yl)sulfonyl]azetidin-3-yl}-1H-pyrazol-4-yl)imidazo[1,2-b]pyridazin-3-yl]phenyl}-N′-(2,2,2-trifluoroethyl)urea] registered an IC50 below 10 nM. The compound `O=C(NCC(F)(F)F)Nc1cccc(-c2cnc3cc(-c4cnn(C5CCN(C(=O)NCc6ccccc6)CC5)c4)cnn23)c1` [Example 39, N-Benzyl-4-(4-{3-[3-({[(2,2,2-trifluoroethyl)amino]carbonyl}amino)phenyl]imidazo[1,2-b]pyridazin-7-yl}-1H-pyrazol-1-yl)piperidine-1-carboxamide] gave an IC50 below 10 nM. `O=C(NCC(F)(F)F)Nc1cccc(-c2cnc3cc(-c4cnn(C5CCN(C(=O)CC6CCCC6)CC5)c4)cnn23)c1` [Example 35, N-[3-(7-{1-[1-(cyclopentylacetyl)piperidin-4-yl]-1H-pyrazol-4-yl}imidazo[1,2-b]pyridazin-3-yl)phenyl]-N′-(2,2,2-trifluoroethyl)urea] had an IC50 below 10 nM. Under `O=C(NCC(F)(F)F)Nc1cccc(-n2cnc3cc(-c4cnn(C5CCN(C(=O)CC6CC6)CC5)c4)ccc32)c1` [Example 27, N-[3-(5-{1-[1-(Cyclopropylacetyl)piperidin-4-yl]-1H-pyrazol-4-yl}-1H-benzimidazol-1-yl)phenyl]-N′-(2,2,2-trifluoroethyl)urea] stands below 10 nM; under `O=C(NCC(F)(F)F)Nc1cccc(-c2cnc3cc(-c4cnn(C5CCN(C(=O)C(O)C(F)(F)F)CC5)c4)cnn23)c1` (centres unmarked) [Example 49, N-(2,2,2-trifluoroethyl)-N′-[3-(7-{1-[1-(3,3,3-trifluoro-2-hydroxypropanoyl)piperidin-4-yl]-1H-pyrazol-4-yl}imidazo[1,2-b]pyridazin-3-yl)phenyl]urea], below 10 nM; under `CNC(=O)C(C)c1ccc(-c2ccc3c(c2)ncn3-c2cccc(NC(=O)NCC(F)(F)F)c2)cc1` (centres unmarked) [Example 14, N-Methyl-2-(4-{1-[3-({[(2,2,2-trifluoroethyl)amino]carbonyl}amino)phenyl]-1H-benzimidazol-5-yl}phenyl)propanamide], below 10 nM. `CC(C(=O)NCCN1CCOCC1)c1ccc(-c2cnn3c(-c4cccc(NC(=O)NCC(F)(F)F)c4)cnc3c2)cc1` (centres unmarked) [Example 107, N-(2-Morpholin-4-ylethyl)-2-(4-{3-[3-({[(2,2,2-trifluoroethyl)amino]carbonyl}amino)phenyl]imidazo[1,2-b]pyridazin-7-yl}phenyl)propanamide] had an IC50 below 10 nM. `O=C(NCC(F)(F)F)Nc1cccc(-n2cnc3cc(-c4cccc(C(=O)NCC5CCCO5)c4)ccc32)c1` (centres unmarked) [Example 2, N-(Tetrahydrofuran-2-ylmethyl)-3-{1-[3-({[(2,2,2-trifluoroethyl)amino]carbonyl}amino)phenyl]-1H-benzimidazol-5-yl}benzamide] came in with a half-inhibitory concentration (IC50) below 10 nM. In the case of `O=C(NCC(F)(F)F)Nc1cccc(-c2cnc3cc(-c4cnn(C5CCN(C(=O)NCC6CCCO6)CC5)c4)cnn23)c1` (centres unmarked) [Example 40, N-(tetrahydrofuran-2-ylmethyl)-4-(4-{3-[3-({[(2,2,2-trifluoroethyl)amino]carbonyl}amino)phenyl]imidazo[1,2-b]pyridazin-7-yl}-1H-pyrazol-1-yl)piperidine-1-carboxamide], the IC50 was below 10 nM. The result for `O=C(NCC(F)(F)F)Nc1cccc(-c2cnc3cc(-c4cnn(C5CCN(C(=O)C6CC(O)C6)CC5)c4)cnn23)c1` (centres unmarked) [Example 47, N-{3-[7-(1-{1-[(3-hydroxycyclobutyl)carbonyl]piperidin-4-yl}-1H-pyrazol-4-yl)imidazo[1,2-b]pyridazin-3-yl]phenyl}-N′-(2,2,2-trifluoroethyl)urea] reads below 10 nM; that for `O=C(NCC(F)(F)F)Nc1cccc(-c2cnc3cc(-c4cnn(C5CCN(C(=O)C6CCOC6)CC5)c4)cnn23)c1` (centres unmarked) [Example 48, N-[3-(7-{1-[1-(tetrahydrofuran-3-ylcarbonyl)piperidin-4-yl]-1H-pyrazol-4-yl}imidazo[1,2-b]pyridazin-3-yl)phenyl]-N′-(2,2,2-trifluoroethyl)urea], below 10 nM; that for `O=C(NCC(F)(F)F)Nc1cccc(-c2cnc3cc(-c4cnn(C5CCN(C(=O)CC6CC6)CC5)c4)cnn23)c1` [Example 41, N-[3-(7-{1-[1-(Cyclopropylacetyl)piperidin-4-yl]-1H-pyrazol-4-yl}imidazo[1,2-b]pyridazin-3-yl)phenyl]-N′-(2,2,2-trifluoroethyl)urea], below 10 nM.

`O=C(NCC(F)(F)F)Nc1cccc(-n2cnc3cc(-c4ccc(C(=O)NCC5CCCO5)cc4)ccc32)c1` (centres unmarked) [Example 8, N-(Tetrahydrofuran-2-ylmethyl)-4-{1-[3-({[(2,2,2-trifluoroethyl)amino]carbonyl}amino)phenyl]-1H-benzimidazol-5-yl}benzamide] had a half-inhibitory concentration (IC50) below 10 nM. Regarding `N#CCC(n1cc(-c2ccc3c(c2)ncn3-c2cccc(NC(=O)NCC(F)(F)F)c2)cn1)C(F)(F)F` (centres unmarked) [Example 22, N-[3-(5-{1-[1-(Cyanomethyl)-2,2,2-trifluoroethyl]-1H-pyrazol-4-yl}-1H-benzimidazol-1-yl)phenyl]-N′-(2,2,2-trifluoroethyl)urea], the half-maximal inhibitory concentration (IC50) is below 10 nM. Regarding `CC(C(=O)N1CCC(C#N)CC1)n1cc(-c2cnn3c(-c4cccc(NC(=O)NCC(F)(F)F)c4)cnc3c2)cn1` (centres unmarked) [Example 70, N-[3-(7-{1-[2-(4-Cyanopiperidin-1-yl)-1-methyl-2-oxoethyl]-1H-pyrazol-4-yl}imidazo[1,2-b]pyridazin-3-yl)phenyl]-N′-(2,2,2-trifluoroethyl)urea], the 50% inhibitory concentration (IC50) is below 10 nM.

As for `CN(C)CC(=O)N1CCC(n2cc(-c3cnn4c(-c5cccc(NC(=O)NCC(F)(F)F)c5)cnc4c3)cn2)CC1` [Example 33, N-{3-[7-(1-{1-[(Dimethylamino)acetyl]piperidin-4-yl}-1H-pyrazol-4-yl)imidazo[1,2-b]pyridazin-3-yl]phenyl}-N′-(2,2,2-trifluoroethyl)urea], the IC50 is below 10 nM.

Compound `CNC(=O)Nc1cccc(-c2cnc3cc(-c4cccc(C(=O)NCc5ccccc5F)c4)cnn23)c1` [Example 96, N-(2-Fluorobenzyl)-3-[3-(3-{[(methylamino)carbonyl]amino}phenyl)imidazo[1,2-b]pyridazin-7-yl]benzamide] gave a 50% inhibitory concentration (IC50) above 25 nM. `O=C(NCC(F)(F)F)Nc1cccc(-n2cnc3cc(-c4cccc(C(=O)NCCN5CCOCC5)c4)ccc32)c1` [Example 4, N-(2-Morpholin-4-ylethyl)-3-{1-[3-({[(2,2,2-trifluoroethyl)amino]carbonyl}amino)phenyl]-1H-benzimidazol-5-yl}benzamide]: the IC50 is below 10 nM. With `CC1(C(=O)N2CCC(n3cc(-c4cnn5c(-c6cccc(NC(=O)NCC(F)(F)F)c6)cnc5c4)cn3)CC2)CC1` [Example 42, N-{3-[7-(1-{1-[(1-Methylcyclopropyl)carbonyl]piperidin-4-yl}-1H-pyrazol-4-yl)imidazo[1,2-b]pyridazin-3-yl]phenyl}-N′-(2,2,2-trifluoroethyl)urea], the concentration for half-maximal inhibition (IC50) was below 10 nM. On to `CC(C(=O)N1CCC[C@H]1CO)c1ccc(-c2cnn3c(-c4cccc(NC(=O)NCC(F)(F)F)c4)cnc3c2)cc1` (stereo partly drawn) [Example 106, N-{3-[7-(4-{2-[(2S)-2-(Hydroxymethyl)pyrrolidin-1-yl]-1-methyl-2-oxoethyl}phenyl)imidazo[1,2-b]pyridazin-3-yl]phenyl}-N′-(2,2,2-trifluoroethyl)urea], for which the concentration for half-maximal inhibition (IC50) was below 10 nM.

`CC(C(=O)NC[C@@H]1CCCO1)c1ccc(-c2cnn3c(-c4cccc(NC(=O)NCC(F)(F)F)c4)cnc3c2)cc1` (some centres unmarked) [Example 100] displayed a concentration for half-maximal inhibition (IC50) below 10 nM. `Cn1ccnc1CNC(=O)c1cccc(-c2ccc3c(c2)ncn3-c2cccc(NC(=O)NCC(F)(F)F)c2)c1` [Example 6, N-[(1-Methyl-1H-imidazol-2-yl)methyl]-3-{1-[3-({[(2,2,2-trifluoroethyl)amino]carbonyl}amino)phenyl]-1H-benzimidazol-5-yl}benzamide] gave a 50% inhibitory concentration (IC50) below 10 nM. In the case of `CC(C(=O)N(C)C)n1cc(-c2cnn3c(-c4cccc(NC(=O)NCC(F)(F)F)c4)cnc3c2)cn1` (centres unmarked) [Example 56, N,N-Dimethyl-2-(4-{3-[3-({[(2,2,2-trifluoroethyl)amino]carbonyl}amino)phenyl]imidazo[1,2-b]pyridazin-7-yl}-1H-pyrazol-1-yl)propanamide], the IC50 is below 10 nM.
